Reference: US20080200475A1 (Pfizer Inc., priority 2005, published 2008)
Where “and” joins values, the source holds several entries; their conditions need not be identical. Equal values may be shown once.

Target: T1, Human P2Y12 (Homo sapiens, UniProt Q9H244)
T1 construct: expressed in transfected cells; host or cells: HEK cells (membrane preparation)
Test: [^33P]-2MeS-ADP Binding to Recombinant Human P2Y12 Membranes (Assay 3)
Settings: for inhibition at 10 µM / % Inhibition, [^33P]-2MeS-ADP Binding to Recombinant Human P2Y12 Membranes (Assay 3): highest concentration tested 10 μM; for IC50 / Ki: membranes of HEK cells transfected with P2Y12, competition with ^33P 2MeS-ADP, multiple lines = multiple runs; for inhibition at 1 µM: highest concentration tested 1 μM
Method: 3. Human P2Y12 Recombinant Cell Membrane Binding Assay with ^33P 2MeS-ADP.
The ability of a test compound to bind to the P2Y12 receptor was evaluated in a recombinant cell membrane binding assay. In this competitive binding assay, the test compound competed against a radiolabelled agonist for binding to the P2Y12 receptor, expressed on the cell membrane. Inhibition of binding of the labeled material was measured and correlated to the amount and potency of the test compound. Data from this assay are presented in Table F. This binding assay is a modification of the procedure in Takasaki, J. et. al, Mol. Pharmacol., 2001, Vol. 60, pg. 432.
HEK cells were transfected with the pDONR201P2Y12 vector and cultured in MEM with GlutaMAX I, Earle's salts, 25 mM HEPES (Gibco #42360-032) containing 10% dialyzed FBS (Gibco #26400-044), 100 μM nonessential amino acids (Gibco #11140-050), 1 mM sodium pyruvate (Gibco #11360-070), 0.05% geneticin (Gibco #10131-027), 3 μg/mL blasticidin (Fluka brand from Sigma #15205), and 0.5 μg/mL puromycin (Sigma #P-8833).
Confluent cells were washed once with cold DPBS (Gibco #14190-136). Fresh DPBS was added and the cells were scraped and centrifuged at 500×g for 5 minutes at 4° C. The cell pellets were resuspended in TEE buffer (25 mM Tris, 5 mM EDTA, 5 mM EGTA) containing 1 protease inhibitor cocktail tablet (Roche #1 873 580) per 50 mL (called TEE+Complete) and can be flash frozen at this point.
In one embodiment, frozen cell pellets were used to prepare the membranes. In that embodiment, the frozen cell pellets were thawed on ice. In another embodiment, cell pellets may be used without flash freezing before moving on to the next step.
Cell pellets were resuspended in TEE buffer+Complete and homogenized in a glass dounce for 12 strokes. The cell suspension was centrifuged at 500×g for 5 minutes at 4° C. The supernatant was saved and centrifuged at 20,000×g for 20 minutes at 4° C. This supernatant was discarded and the cell pellet resuspended in TEE buffer+Complete and homogenized in a glass dounce for 12 strokes. This suspension was centrifuged at 20,000×g for 20 minutes at 4° C. and the supernatant discarded. The pellet was resuspended in assay buffer (50 mM Tris, 100 mM NaCl, 1 mM EDTA) containing one protease inhibitor cocktail tablet per 50 mL, and can be flash frozen as 1 mL aliquots at this point.
[…] A 1 mM DMSO intermediate stock was made in a dilution plate and from this the seven dilutions were made to 5× the final concentration in assay buffer containing 0.02% BSA.
To a polypropylene assay plate (Costar #3365) the following were added: a) 30 μL of assay buffer containing one protease inhibitor cocktail tablet per 50 mL; b) 30 μL of 1 nM ^33P 2MeS-ADP made in assay buffer containing 0.02% BSA and 12.5 mg/mL ascorbic acid; 30 μL of cold 1.5 μM 2MeS-ADP for the positive control wells, or assay buffer containing 0.02% BSA and 12.5 mg/mL ascorbic acid for the negative control wells, or 5× drug dilution; and 60 μL of 1 ug/well membranes.
The plates were incubated at room temperature for 1 hour. The reaction was stopped using a cell harvester to transfer the reaction mixture onto GF/B UniFilter plates (Perkin Elmer #6005177), and washed three times with wash buffer (50 mM Tris), filtering between each wash. The filter plates were dried for approximately 20 minutes in an oven at 50° C. Back seals were adhered to the filter plates and 25 uL of Microscint 20 scintillation fluid (Perkin Elmer #6013621) were added. The filter plates were sealed, shaken for 30 minutes, and counted on a Top Count. Data were analyzed using a four-parameter curve fit with a fixed minimum and maximum experimentally defined as the average positive and negative controls on each plate, and with a hill slope equal to one. […]

T1 sequence (Q9H244 whole entry): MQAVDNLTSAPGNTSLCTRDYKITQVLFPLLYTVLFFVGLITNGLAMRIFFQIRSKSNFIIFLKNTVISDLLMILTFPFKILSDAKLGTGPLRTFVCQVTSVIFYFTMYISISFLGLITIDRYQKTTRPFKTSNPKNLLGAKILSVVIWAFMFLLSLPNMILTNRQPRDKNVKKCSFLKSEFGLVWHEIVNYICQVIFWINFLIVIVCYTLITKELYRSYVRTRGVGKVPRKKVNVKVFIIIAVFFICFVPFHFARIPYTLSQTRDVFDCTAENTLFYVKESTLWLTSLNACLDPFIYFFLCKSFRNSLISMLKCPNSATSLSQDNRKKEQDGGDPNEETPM

| SMILES | inhibition at 10 µM | IC50 | Ki | % Inhibition, [^33P]-2MeS-ADP Binding to Recombinant Human P2Y12 Membranes (Assay 3) | inhibition at 1 µM |
| --- | --- | --- | --- | --- | --- |
| CCc1cc2c(N3CCN(C(=O)c4ccc(-c5ccccc5)cc4)CC3)nc(NC(=O)c3cccnc3)nc2s1 [Example 29, N-{4-[4-(Biphenyl-4-carbonyl)piperazin-1-yl]-6-ethylthieno[2,3-d]pyrimidin-2-yl}nicotinamide] | 89% | 0.078 µM | 0.043 µM |  |  |
| CCc1cc2c(N3CCN(C(=O)c4ccc(-c5ccccc5)cc4)CC3)nc(NC(=O)C3OC(OC)[C@@H]4OC(C)(C)O[C@H]34)nc2s1 (stereo partly drawn) [Example 31, (7R,8S)-6-Methoxy-2,2-dimethyltetrahydrofuro[3,4-d][1,3]dioxole-4-carboxylic acid{4-[4-(biphenyl-4-carbonyl)piperazin-1-yl]-6-ethylthieno[2,3-d]pyrimidin-2-yl}amide] | 76.7% | 0.345 µM and 0.678 µM | 0.189 µM and 0.329 µM | 72.4% |  |
| CCc1cc2c(N3CCN(C(=O)c4ccc(-c5ccccc5)cc4)CC3)nc(NC(=O)c3ccccn3)nc2s1 [Example 33, {4-[4-(Biphenyl-4-carbonyl)piperazin-1-yl]-6-ethylthieno[2,3-d]pyrimidin-2-yl}picolinamide] | 87.9% | 0.0389 µM | 0.021 µM |  |  |
| CCc1cc2c(N3CCN(C(=O)c4ccc(-c5ccccc5)cc4)CC3)nc(NC(=O)c3ccncc3)nc2s1 [Example 34, {4-[4-(Biphenyl-4-carbonyl)piperazin-1-yl]-6-ethylthieno[2,3-d]pyrimidin-2-yl}isonicotinamide] | 74.8% | 0.582 µM | 0.328 µM |  |  |
| CCc1cc2c(N3CCN(C(=O)c4ccc(-c5ccccc5)cc4)CC3)nc(NC(=O)[C@H](COC(C)(C)C)NC(=O)OCc3ccccc3)nc2s1 [Example 35, Benzyl (1-{4-[4-(biphenyl-4-carbonyl)piperazin-1-yl]-6-ethylthieno[2,3-d]pyrimidin-2-ylcarbamoyl)-2-tert-butoxyethyl)carbamate] | 53.9% | 2.7 µM | 1.31 µM |  |  |
| CCc1cc2c(N3CCN(C(=O)c4ccc(-c5ccccc5)cc4)CC3)nc(NC(=O)[C@@H]3CCCN3)nc2s1 [Example 39, (S)-Pyrrolidine-2-carboxylic Acid{4-[4-(Biphenyl-4-carbonyl)piperazin-1-yl]-6-ethylthieno[2,3-d]pyrimidin-2-yl}amide] | 81% | 0.179 µM | 0.087 µM |  |  |
| CCc1cc2c(N3CCN(C(=O)c4ccc(-c5ccccc5)cc4)CC3)nc(NC(=O)[C@H]3CCCN3)nc2s1 [Example 40, (R)-Pyrrolidine-2-carboxylic acid{4-[4-(biphenyl-4-carbonyl)piperazin-1-yl]-6-ethylthieno[2,3-d]pyrimidin-2-yl}amide] | 75.6% | 0.403 µM | 0.227 µM |  |  |

Results, then the compound that gave them:

| inhibition at 10 µM | IC50 | Ki | % Inhibition, [^33P]-2MeS-ADP Binding to Recombinant Human P2Y12 Membranes (Assay 3) | inhibition at 1 µM | SMILES |
| --- | --- | --- | --- | --- | --- |
| 94% | 0.067 µM | 0.037 µM |  |  | CCc1cc2c(N3CCN(C(=O)c4ccc(-c5ccccc5)cc4)CC3)nc(NC(=O)CCO)nc2s1 [Example 36, N-{4-[4-(Biphenyl-4-carbonyl)piperazin-1-yl]-6-ethylthieno[2,3-d]pyrimidin-2-yl}-3-hydroxypropionamide] |
|  | 0.0493 µM | 0.024 µM |  | 84.5% | CCc1cc2c(N3CCN(C(=O)c4ccc(-c5ccccc5)cc4)CC3)nc(NC(=O)CO)nc2s1 [Example 37, N-{4-[4-(Biphenyl-4-carbonyl)piperazin-1-yl]-6-ethylthieno[2,3-d]pyrimidin-2-yl}-b-hydroxyacetamide] |
|  | 0.013 µM | 0.008 µM |  | 88% | CCc1cc2c(N3CCN(C(=O)c4ccc(-c5ccccc5)cc4)CC3)nc(NC(=O)CCC(=O)O)nc2s1 [Example 38, N-{4-[4-(Biphenyl-4-carbonyl)piperazin-1-yl]-6-ethylthieno[2,3-d]pyrimidin-2-yl}succinamic acid] |
| 85% | 0.156 µM | 0.085 µM |  |  | CCc1cc2c(N3CCN(C(=O)c4ccc(-c5ccccc5)cc4)CC3)nc(NC(=O)CN)nc2s1 [Example 41, 2-Amino-N-{4-[4-(biphenyl-4-carbonyl)piperazin-1-yl]-6-ethylthieno[2,3-d]pyrimidin-2-yl}acetamide] |
|  | 6.88 µM and 4.16 µM | 3.82 µM and 2.3 µM | 46.8% and 71.7% |  | CCOC(=O)CCNC(=O)Nc1nc(N2CCN(C(=O)CC(F)(F)F)CC2)c2cc(CC)sc2n1 [Example 46, Ethyl N-[({6-ethyl-4-[4-(3,3,3-trifluoropropanoyl)piperazin-1-yl]thieno[2,3-d]pyrimidin-2-yl}amino)carbonyl]-beta-alaninate] |
| 88.9% | 0.449 µM and 0.308 µM and 0.254 µM | 0.234 µM and 0.168 µM and 0.14 µM | 94.4% and 92% |  | CCc1cc2c(N3CCN(C(=O)CC(F)(F)F)CC3)nc(NC(=O)NCCC(=O)O)nc2s1 [Example 49, N-[({6-Ethyl-4-[4-(3,3,3-trifluoropropanoyl)piperazin-1-yl]thieno[2,3-d]pyrimidin-2-yl}amino)carbonyl]-beta-alanine] |
